Columns and labels:
[1] = molecular target: T1, BRD4 (Homo sapiens, UniProt O60885); experiment: BRD4 degradation in HEK293 cells (Western blot); assay type: cell-based; details: lysed after 24, Western blot
T1 construct: endogenous in cells; host or cells: HEK293
Procedure: On day 1, 6.25×10^5 HEK293 cells were seeded per well into a 12-well plate. After 24, cells were lysed in wells with 80 ul of pre-chilled RIPA Lysis buffer (Beyotime, P0013B) with protease/phosphatase inhibitor (Roche 4693116001/Roche 04906837001) for 20 min at 4 degree on a rocker, then spun down at 20,000g at 4 degree for 10 min and the BCA assay was run. 39 ul of supernatant was transferred to a fresh EP tube containing 15 ul of 4X LDS loading buffer and 6 ul 10X reducing agent to make the loading samples. The samples were then heated to 70° C. for 10 minutes, cooled to RT, and stored under−20° C. Samples were loaded with equal amount of protein onto 4-12% Bis -Tris SDS-PAGE 26 wells gel (Novex, WG1403BOX) and the gel was run for 1.5 hours at 120 V. Electrotransfer to NC membrane was completed using wet-transfer method with 250 mA for 80 min and the membrane was blocked in 5% BSA (Solarbio,A8020) with 1X TBST for 1 hour. The samples were incubated with primary antibody prepared in blocking buffer (LI-COR, 927-60001) at 4° C. overnight and the membrane was washed three times with 1X TBST, 5 minutes each. Incubate with secondary antibody for 1 hour at RT (anti-rabbit IgG (Licor,926-32211) 1:5000; anti-mouse IgG (LI-COR, 926-68070)1:5000). The membrance was then washed three times with 1X TBST, 5 minutes each and once with RO H2O, then read on LiCOR.

[2] = molecular target: T2, truncated His-MBP-Tev-KLHDC2 (residues 1-363) (Homo sapiens, UniProt Q9Y2U9); experiment: KLHDC2 FP competition binding assay; details: 15 nM KLHDC2 (residues 1-363), 10 nM fluorescein-labeled diglycine peptide probe, read-out: KLHDC2 binding Human FP: average external IC50
T2 construct: truncated His -MBP-Tev-KLHDC2 (residues 1-363) purified from E. coli; made in house; host or cells: E. coli
T2 sequence (Q9Y2U9 1-363): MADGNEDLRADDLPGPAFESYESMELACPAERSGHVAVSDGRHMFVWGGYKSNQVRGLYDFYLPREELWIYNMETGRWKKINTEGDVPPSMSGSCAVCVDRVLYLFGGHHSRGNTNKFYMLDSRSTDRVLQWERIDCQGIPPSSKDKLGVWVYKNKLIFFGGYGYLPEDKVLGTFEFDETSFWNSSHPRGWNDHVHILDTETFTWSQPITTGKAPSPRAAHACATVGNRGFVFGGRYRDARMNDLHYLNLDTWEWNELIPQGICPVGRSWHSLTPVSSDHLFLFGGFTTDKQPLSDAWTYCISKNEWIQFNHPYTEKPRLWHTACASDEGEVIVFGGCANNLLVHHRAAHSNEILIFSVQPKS

[3] = molecular target: T2, truncated His-MBP-Tev-KLHDC2 (residues 1-363); experiment: KLHDC2 HTRF binding assay; details: 1 nM KLHDC2 (residues 1-363), fluorescein-labeled diglycine peptide probe

KLHDC2-dependent BRD4 degradation ([1]; FIG. 4)	BRD4 degradation ([1]; FIGS. 2-3)	IC50 [2] [µM]	IC50 [3] [µM]	SMILES
–	–	> 5	> 5	O=C(O)Cn1cc(NC(=O)C2(S(=O)(=O)c3ccc(Cl)cc3)CCCC2)ccc1=O [I-236]
–	–	> 5	> 5	CN1CCN(Cc2cccc(-c3ccc(=O)n(CC(=O)O)c3)c2)CC1 [I-305]
–	–	> 5	> 5	O=C(O)Cn1cc(NC(=O)c2cccc(-c3ccccc3)n2)ccc1=O [I-274]
–	–	> 5	> 5	NC(=O)c1ccc(CN2C(=O)CCC2C(=O)O)cc1 (stereo not drawn) [I-222]
–	–	> 5	> 5	CC(Cc1ccccc1Cl)C(=O)Nc1ccc(=O)n(CC(=O)O)c1 (stereo not drawn) [I-310]
–	–	> 5	> 5	CNC(=O)c1ccc(-c2cccc(C(=O)Nc3ccc(=O)n(CC(=O)O)c3)c2)cc1 [I-193]
–	–	0.5 to 5	0.05 to 0.5	CNc1cncc(N2CCC[C@H](C(=O)Nc3ccc(F)c(CC(=O)O)c3)C2)c1 [I-19]
–	–	> 5	> 5	CS(=O)(=O)c1ccccc1-c1ccc(=O)n(CC(=O)O)c1 [I-394]
–	–	> 5	> 5	CN(C)C(=O)c1ccc(-c2ccc(=O)n(CC(=O)O)c2)cc1F [I-384]
–	–	> 5	0.5 to 5	Cc1c(Cl)cccc1OCC(=O)Nc1ccc(=O)n(CC(=O)O)c1 [I-309]
–	–	> 5	> 5	O=C(O)Cn1cc(C(=O)NCc2ccccc2)ccc1=O [I-373]
–	–	> 5	> 5	O=C(O)Cn1cc(NC(=O)N2CCC(c3ccccc3)CC2)ccc1=O [I-140]
–	–	> 5	> 5	O=C(O)Cn1cc(N2CCCCC2)ccc1=O [I-357]
–	–	> 5	> 5	O=C(O)Cn1cc(NC(=O)c2ccnc(-c3ccccc3)c2)ccc1=O [I-260]
–	–	> 5	> 5	O=C(O)Cn1cc(-c2ccc(N3CCCC3)nc2)ccc1=O [I-380]
–	–	> 5	0.5 to 5	O=C(O)Cn1cc(NC(=O)c2ccc(-c3ccccc3)cc2)ccc1=O [I-212]

The next lines start with the compound.

SMILES	KLHDC2-dependent BRD4 degradation ([1]; FIG. 4)	BRD4 degradation ([1]; FIGS. 2-3)	IC50 [2] [µM]	IC50 [3] [µM]
Cc1sc2c(c1C)C(c1ccc(Cl)cc1)=N[C@@H](CC(=O)NCCCCCCCCCCCCCCN(C(=O)C1CCCN(c3cncc4ccccc34)C1)c1ccc(=O)n(CC(=O)O)c1)c1nnc(C)n1-2 (stereo partly drawn) [I-481]	KLHDC2-dependent BRD4 degradation	BRD4 degradation	–	–
O=C(O)Cn1cc(NC(=O)c2ccc(-c3ccccc3)s2)ccc1=O [I-249]	–	–	> 5	0.5 to 5
CC(C)c1ccc(C(=O)Nc2ccc(=O)n(CC(=O)O)c2)cc1-c1cccnc1 [I-174]	–	–	0.5 to 5	0.5 to 5
CC(C)Cn1ccc2c(C(=O)Nc3ccc(=O)n(CC(=O)O)c3)ccnc21 [I-132]	–	–	> 5	0.5 to 5
O=C(O)Cn1cc(N2CCc3ccc(-c4cccnc4)cc3C2=O)ccc1=O [I-89]	–	–	0.5 to 5	0.05 to 0.5
Cc1ccc(C)c(-c2ccc(O)c(CC(=O)O)c2)c1 [I-338]	–	–	> 5	> 5
O=C(O)Cn1cc(NC(=O)[C@H]2CC[C@H](NC(=O)C3CCCC3)CC2)ccc1=O [I-183]	–	–	> 5	> 5
CCCOc1nc2ccccc2cc1C(=O)Nc1ccc(=O)n(CC(=O)O)c1 [I-188]	–	–	> 5	> 5
COc1cc(-c2ccccn2)ccc1C(=O)Nc1ccc(=O)n(CC(=O)O)c1 [I-149]	–	–	0.5 to 5	0.5 to 5
NCCCCCCc1ccc(C(=O)Nc2ccc(=O)n(CC(=O)O)c2)cc1-c1cccnc1 [I-144]	–	–	0.5 to 5	0.5 to 5
NC(=O)Cn1cc(NC(=O)c2cccc(-c3cncc4ccccc34)c2)ccc1=O [I-122]	–	–	> 5	> 5
O=C(O)Cn1cc(-c2ccc(C(F)(F)F)cc2)ccc1=O [I-372]	–	–	> 5	> 5
COc1ccc(-c2ccccc2C)cc1CC(=O)O [I-352]	–	–	> 5	> 5
CC(C)Cn1ncc2c(C(=O)Nc3ccc(=O)n(CC(=O)O)c3)cccc21 [I-136]	–	–	> 5	0.5 to 5
CC(C)Cn1cnc2c(C(=O)Nc3ccc(=O)n(CC(=O)O)c3)cccc21 [I-133]	–	–	> 5	0.5 to 5
O=C(Nc1ccc(=O)n(Cc2nn[nH]n2)c1)c1cccc(-c2cccnc2)c1 [I-79]	–	–	> 5	> 5
O=C(O)Cn1cc(NC(=O)c2cccc(-c3ccc(C(F)(F)F)cc3)c2)ccc1=O [I-199]	–	–	> 5	> 5

— US20250214969A1, “PROTEIN DEGRADERS AND USES THEREOF” (Kymera Therapeutics, Inc., priority 2022, published 2025)
